Measured values from article PMC9967645, “OAT3 Participates in Drug–Drug Interaction between Bentysrepinine and Entecavir through Interactions with M8—A Metabolite of Bentysrepinine—In Rats and Humans In Vitro” (Molecules, 2023).
Values joined by “and” are separate entries in the source; they are usually repeats but may differ in a detail not shown here. Equal values may be shown once. Read-outs that look alike come from different tables or passages of the source. Blank lines part the entries; values can stand above or below the molecule they belong to.

Experiments:
[1] = Renal excretion study in rats (cumulative urinary excretion, renal clearance); format: in vivo, Sprague–Dawley (SD) rats; conditions: for CL renal: Sprague-Dawley, rat, urine, iv, read-out: CLR (renal clearance) (converted)
Description: To investigate the effects of PRO on the renal excretion of Y101 and its metabolites, rats received an intravenous dose of Y101 (25 mg/kg) or Y101 + PRO (25 mg/kg for Y101 and 100 mg/kg for PRO) via the caudal vein. In order to verify the DDI between Y101 and ETV in renal excretion, rats received an intravenous dose of Y101 (25 mg/kg) and/or ETV (0.06 mg/kg) by caudal vein.
[…] Subsequently, urine samples were stored at −70 °C until analysis. The cumulative urinary excretion and renal clearance (CLR) were calculated as previously described.
(§1) Biological samples were prepared as previously described.

[2] = Pharmacokinetic DDI study in rats, oral Y101 and/or ETV; format: in vivo, Sprague–Dawley (SD) rats; conditions: Sprague-Dawley, rat, plasma, n = 4
Description: (§2) Additionally, DDI between Y101 and ETV was investigated by monitoring time-course plasma Y101 in rats with surgery as described above. Animals were randomly placed into three groups (n = 4): (1) Y101 alone (25 mg/kg for intravenous treatment and 60 mg/kg for oral administration); (2) ETV (0.06 mg/kg); and (3) Y101 (25 mg/kg for intravenous treatment and 60 mg/kg for oral administration) + ETV (0.06 mg/kg). ETV was dissolved in saline at concentration of 12 µg/mL. Rats received an oral or intravenous dose of Y101 and/or ETV at volume of 5 mL/kg. The doses used in in vivo pharmacokinetic studies were selected in accordance with therapeutic doses of Y101 and ETV commonly used clinically and in previous studies.
(§3) Following administration, serial blood samples were collected through jugular vein pre-dose (0 h) and post-dose at 0.033, 0.083, 0.25, 0.5, 1, 1.5, 2, 3, 4, 6, 9, 12, 24 and 30 h in heparinized Eppendorf tubes. The resulting samples were centrifuged at 13,800× g at 4 °C for 5 min to obtain plasma. All plasma samples were stored at −70 °C until analysis.
as §1
(§4) Non-compartmental analysis with Phenix WinNonlin (version 8.1; Pharsight, Certara Corp, Princeton, NJ) was used to calculate the main pharmacokinetic parameters of ETV, Y101, M8 and M9 for individual rats. The observed values were reported for maximum concentration (Cmax) and time to reach maximum concentration (Tmax), while the area under the plasma concentration–time curve (AUC) was calculated via the default trapezoidal-up, log-trapezoidal-down approach.

[3] = Pharmacokinetic DDI study in rats, intravenous Y101 and/or ETV; format: in vivo, Sprague–Dawley (SD) rats; conditions: Sprague-Dawley, rat, plasma, n = 4
Description: as §2, §3, §1, §4

rat kidney slices = assay: In vitro uptake assay in kidney slices; format: in vitro ADME; conditions: M8 5.0 µM; for inhibition of the uptake of M8 in kidney slices: PCG 0.2 and 0.5 mM, PRO 0.1 mM, PAH 0.2 and 0.5 mM, TEA 0.2 mM, 10 min, ETV 10 µM
Description: The renal cortex was cut into 300 µm slices with a ZQP-86 tissue slicer (Shanghai Zhisun Equipment Co., Ltd., Shanghai, China; surface area 0.15 cm^2). […] Next, the kidney slices were prepared as previously described. Two slices per well were placed into 37 °C buffer filled with oxygen for pre-incubation for 3 min and then gently moved into a 24-well cell culture plate containing 1 mL oxygenated buffer at 4 °C or 37 °C. The uptakes of ETV (10 µM), Y101 (2.0 µM), M8 (5.0 µM) and M9 (1.0 µM) were measured at 5, 10, 15 and 30 min after the treatment, respectively. […] Following incubation at the designated time, kidney slices were collected, rinsed with ice-cold buffer three times, and dried on filter paper. After weighing and homogenization (IKA-T 10 homogenizer; IKA, Staufen, Germany), the concentrations of Y101, M8, M9 and ETV of kidney slice homogenates were determined as in the description below.
(§5) Biological samples were prepared as previously described. Aliquots (50 µL) of urine, plasma, kidney homogenates, or cell lysates were individually mixed with 150 µL methanol and 50 µL working solution of internal standard (acetaminophen or bestatin), followed by vortexing for 1 min and centrifuging at 13,800 g for 10 min. […] The resulting supernatant (1 µL) was subjected to LC-MS/MS for the assessment of Y101, M8, M9 and ETV, respectively. […] The concentrations of ETV, Y101, M8 and M9 were determined by an AB QTRAP 5500 LC–MS/MS System (Foster City, CA, USA) as previously described. Chromatographic separation was achieved on an Infinitylab Poroshell 120 EC-C18 (50 mm × 2.1 mm, 2.7 µm, Agilent Technology Inc., CA, USA) at 40 °C. The mobile phase consisted of formic acid-acetonitrile (0.05:100, v/v) and a mixture of 1 mmol-ammonium acetate-acetonitrile-formic acid (95:5:0.05, v/v/v) at a flow rate of 0.3 mL/min. […] Analyst1.5.2 software was used for data processing and analysis.

[4] = Pharmacokinetic study in rats, intravenous Y101 with or without PRO; format: in vivo, Sprague–Dawley (SD) rats; conditions: for Tmax / half-life / AUC(0-inf) / AUC(0-t) / Cmax: male, Sprague-Dawley, rat, plasma, iv, 25 mg/kg, n = 3
Description: The effect of PRO on the pharmacokinetics of Y101 was studied in rats. Male rats surgically prepared with indwelling jugular cannula were randomly divided into two groups (n = 3): (1) Y101 alone (25 mg/kg) as a control and (2) Y101 + PRO (25 mg/kg for Y101 and 100 mg/kg for PRO) as an experimental group. The intravenous dose of Y101 was prepared as previously described. Both Y101 and PRO were injected by caudal vein to rats at volume of 5 mL/kg.
as §3, §1, §4

hOAT3 = target: T1, hOAT3 (Homo sapiens, UniProt Q8TCC7); assay: In vitro uptake assay in hOAT3-HEK293 cells
T1 sequence (Q8TCC7 1-542): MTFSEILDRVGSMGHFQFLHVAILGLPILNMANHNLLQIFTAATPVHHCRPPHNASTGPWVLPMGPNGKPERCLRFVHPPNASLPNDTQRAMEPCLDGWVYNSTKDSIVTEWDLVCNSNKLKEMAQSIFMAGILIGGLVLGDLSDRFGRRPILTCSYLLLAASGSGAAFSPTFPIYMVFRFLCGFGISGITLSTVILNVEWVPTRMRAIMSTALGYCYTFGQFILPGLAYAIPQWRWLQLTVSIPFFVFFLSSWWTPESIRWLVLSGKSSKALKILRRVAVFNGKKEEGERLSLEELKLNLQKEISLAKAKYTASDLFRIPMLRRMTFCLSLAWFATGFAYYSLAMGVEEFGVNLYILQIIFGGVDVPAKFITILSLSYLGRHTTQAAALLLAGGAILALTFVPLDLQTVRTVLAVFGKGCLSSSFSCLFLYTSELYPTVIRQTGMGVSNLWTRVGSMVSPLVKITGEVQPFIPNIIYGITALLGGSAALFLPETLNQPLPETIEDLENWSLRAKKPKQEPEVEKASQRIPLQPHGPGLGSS
Description: The hOAT1-HEK293, hOAT3-HEK293 and mock cells were cultured in Dulbecco modified Eagle medium (DMEM) containing 10% fetal bovine serum (FBS) and 1% penicillin/streptomycin in an atmosphere of 5% CO2 air at 37 °C. The HEK293 cells were plated on 24-well plates at a density of 5 × 10^5 cells/well. […] Uptake assay was initiated by adding 1 mL of the transporter buffer containing Y101, M8, ETV or probe substrate. Following incubation with gentle shaking, the uptake was terminated at designated time by removing the transporter buffer and washing cells three times with 1 mL of ice-cold HBSS. Next, substrates of Y101, M8, ETV, PAH and ES in cell monolayer were released by lysing the cells with 0.3 mL of 0.1% Triton X-100 for 2 h and determined by liquid chromatography–tandem mass spectrometry (LC–MS/MS). In the time-course uptake assay, Y101 (2.0 µM) and M8 (10 µM) in the presence or absence of PRO (100 µM) were measured in hOAT1-HEK293, hOAT3-HEK293 and mock cells. The concentration-dependent uptake of M8 was determined in hOAT3-HEK293 cells, and incubation time (5 min) was optimized. The uptake of M8 (10 µM) with or without ETV was examined in hOAT3-HEK293 cells. The uptake of ETV (10 µM) with or without Y101 or M8 was also measured in hOAT1-HEK293 and hOAT3-HEK293 cells, respectively. Furthermore, PAH and ES at concentrations of 10 µM were used as positive control in hOAT1-HEK293 and hOAT3-HEK293 cells, respectively. Protein concentrations were measured by the bicinchoninic acid procedure (Solarbio, Beijing, China) using bovine serum albumin as the standard.
as §5

[5] = i.v. Y101 25 mg/kg + ETV 0.06 mg/kg
[6] = oral Y101 60 mg/kg + ETV 0.06 mg/kg
[7] = i.v. Y101 25 mg/kg + PRO 100 mg/kg vs Y101 alone
[8] = i.v. Y101 25 mg/kg + PRO 100 mg/kg

CL renal ([1]; 25 mg/kg, i.v. Y101 25 mg/kg + PRO 100 mg/kg): 2 mL/min/kg | CL renal ([1]; 25 mg/kg, i.v. Y101 25 mg/kg alone (Table 1, control of PRO study)): 2.08 mL/min/kg | CL renal ([1]; 25 mg/kg, i.v. Y101 25 mg/kg alone (Table 2, control of ETV study)): 2.47 mL/min/kg | CL renal [1, 5]: 2.67 mL/min/kg | cumulative excretion in the urine ([1]; i.v. Y101 25 mg/kg + ETV 0.06 mg/kg, at 30 h post-dose): 1.50 ± 0.232 % of the dose | cumulative urinary excretion ([1]; i.v. Y101 25 mg/kg + PRO 100 mg/kg, 0 to 48 h): 1.36 ± 0.106% | AUC(0-inf) [2, 6]: 657 ng·h/mL | AUC(0-t) [2, 6]: 645 ng·h/mL | Cmax [2, 6]: 127 ng/mL | AUC(0-inf) ([2]; oral Y101 60 mg/kg alone): 645 ng·h/mL | AUC(0-t) ([2]; oral Y101 60 mg/kg alone): 641 ng·h/mL | Cmax ([2]; oral Y101 60 mg/kg alone): 144 ng/mL | Tmax [2, 6]: 2.5 h | half-life [2, 6]: 1.46 h | Tmax ([2]; oral Y101 60 mg/kg alone): 3 h | half-life ([2]; oral Y101 60 mg/kg alone): 1.16 h | AUC(0-inf) [3, 5]: 471 ng·h/mL | AUC(0-t) [3, 5]: 464 ng·h/mL | Cmax [3, 5]: 171 ng/mL | AUC(0-inf) ([3]; i.v. Y101 25 mg/kg alone): 553 ng·h/mL | AUC(0-t) ([3]; i.v. Y101 25 mg/kg alone): 547 ng·h/mL | Cmax ([3]; i.v. Y101 25 mg/kg alone): 134 ng/mL | Tmax [3, 5]: 1.25 h | half-life [3, 5]: 1.8 h | Tmax ([3]; i.v. Y101 25 mg/kg alone): 1.13 h | half-life ([3]; i.v. Y101 25 mg/kg alone): 1.14 h | elevation in AUC value on co-administration of PRO [4, 7]: 56% | increase in Cmax value on co-administration of PRO [4, 7]: 1.4 fold | Tmax [4, 8]: 1.33 h | half-life [4, 8]: 1.32 h | AUC(0-inf) [4, 8]: 536 ng·h/mL | AUC(0-t) [4, 8]: 527 ng·h/mL | Cmax [4, 8]: 219 ng/mL | AUC(0-inf) ([4]; i.v. Y101 25 mg/kg alone): 343 ng·h/mL | AUC(0-t) ([4]; i.v. Y101 25 mg/kg alone): 335 ng·h/mL | Cmax ([4]; i.v. Y101 25 mg/kg alone): 156 ng/mL | Tmax ([4]; i.v. Y101 25 mg/kg alone): 1.17 h | half-life ([4]; i.v. Y101 25 mg/kg alone): 1.01 h
SMILES: C[N+](C)([O-])CCOc1ccc(CC(NC(=O)c2ccccc2)C(=O)O)cc1 (stereo not drawn) [M9]
cumulative urinary excretion ([1]; i.v. Y101 25 mg/kg alone, at 48 h post-dose): 1.42 ± 0.04 % of the dose and 1.42 % of the dose | time and temperature dependence of uptake in kidney slices (rat kidney slices; 37 °C vs 4 °C, Y101 2.0 µM, M9 1.0 µM, 5 to 30 min): did not show significant time or temperature dependence

inhibition of the uptake of ES in hOAT3-HEK293 cells (hOAT3; ES 10 µM, PRO 100 µM, 10 min): inhibited in the presence of PRO | inhibition of the uptake of M8 in hOAT3-HEK293 cells (hOAT3; M8 10 µM, PRO 100 µM, ETV 10 µM): inhibited by the presence of PRO
SMILES: CCCN(CCC)S(=O)(=O)c1ccc(C(=O)O)cc1 [PRO, probenecid, reference compound]
inhibition of the uptake of M8 in kidney slices (rat kidney slices): inhibited significantly

SMILES: CC1(C)S[C@@H]2[C@H](NC(=O)Cc3ccccc3)C(=O)N2[C@H]1C(=O)O [PCG, benzylpenicillin]
inhibition of the uptake of M8 in kidney slices (rat kidney slices): inhibited significantly

SMILES: C[C@]12CC[C@@H]3c4ccc(OS(=O)(=O)[O-])cc4CC[C@H]3[C@@H]1CCC2=O.[Na+] [ES, Estrone 3-sulfate sodium salt, reference compound]
substrate of hOAT3 (uptake in hOAT3-HEK293 vs mock-HEK293 cells) (hOAT3; Y101 2.0 µM, M8 10 µM, ES 10 µM): selectively accumulated
